Test results: US8952024B2, “Herbicidal pyrimidone derivatives” (E I du Pont de Nemours and Company, priority 2009, dated 2015)

Tests used:
Type in all cases: in vivo
[1] = system: spring barley (Hordeum vulgare); assay: Test C plant response; conditions: Postemergence, scale 0 to 100
Text: (§1) Seeds of plant species selected from bluegrass (annual bluegrass, Poa annua), blackgrass (Alopecurus myosuroides), canarygrass (Phalaris minor), chickweed (common chickweed, Stellaria media), galium (catchweed bedstraw, Galium aparine), bromegrass (downy bromegrass, Bromus tectorum), field poppy (Papaver rhoeas), field violet (Viola arvensis), green foxtail (Setaria viridis), deadnettle (henbit deadnettle, Lamium amplexicaule), Italian ryegrass (Lolium multiflorum), kochia (Kochia scoparia), lambsquarters (Chenopodium album), oilseed rape (Brassica napus), pigweed (Amaranthus retroflexus), Russian thistle (Salsola iberica), spring barley (Hordeum vulgare), spring wheat (Triticum aestivum), buckwheat (wild buckwheat, Polygonum convolvulus), wild mustard (Sinapis arvensis), wild oat (Avena fatua), wild radish (Raphanus raphanistrum), windgrass (Apera spica-venti), winter barley (Hordeum vulgare), and winter wheat (Triticum aestivum) were planted and treated postemergence with test chemicals formulated in a non-phytotoxic solvent mixture which included a surfactant. Plants ranged in height from 2 to 18 cm (1- to 4-leaf stage).
(§2) Treated plants and controls were maintained in a controlled growth environment for 14 days after which time all test plants were visually evaluated and compared to controls. Plant response ratings, summarized in Table C, are based on a scale of 0 to 100 where 0 is no effect and 100 is complete control. A dash (-) response means no test result.

[2] = system: green foxtail (Setaria viridis); assay: Test C plant response; conditions: Postemergence, scale 0 to 100
Text: as §1, §2

wild oat (Avena fatua) = assay: Test C plant response; conditions: Postemergence, scale 0 to 100
Text: as §1, §2

[3] = system: oilseed rape (Brassica napus); assay: Test C plant response; conditions: Postemergence, scale 0 to 100
Text: as §1, §2

[4] = system: pigweed (Amaranthus retroflexus); assay: Test C plant response; conditions: Postemergence, scale 0 to 100
Text: as §1, §2

[5] = system: bluegrass (annual bluegrass, Poa annua); assay: Test C plant response; conditions: Postemergence, scale 0 to 100
Text: as §1, §2

[6] = system: buckwheat (wild buckwheat, Polygonum convolvulus); assay: Test C plant response; conditions: Postemergence, scale 0 to 100
Text: as §1, §2

[7] = system: winter wheat (Triticum aestivum); assay: Test C plant response; conditions: Postemergence, scale 0 to 100
Text: as §1, §2

[8] = system: field violet (Viola arvensis); assay: Test C plant response; conditions: Postemergence, scale 0 to 100
Text: as §1, §2

[9] = system: goosegrass (Eleusine indica); assay: Test B pre-/postemergence plant response; conditions: Preemergence, 62 g ai/ha; scale 0 to 100 (0 no effect, 100 complete control)

Compound	Plant response rating: Barley, Spring ([1]; 31 g ai/ha)	Plant response rating: Barley, Spring ([1]; 125 g ai/ha)	Plant response rating: Foxtail, Green ([2]; 31 g ai/ha)	Plant response rating: Foxtail, Green ([2]; 125 g ai/ha)	Plant response rating: Oat, Wild (wild oat (Avena fatua); 31 g ai/ha)	Plant response rating: Oat, Wild (wild oat (Avena fatua); 125 g ai/ha)	Plant response rating: Oilseed Rape ([3]; 31 g ai/ha)	Plant response rating: Oilseed Rape ([3]; 125 g ai/ha)	Plant response rating: Pigweed ([4]; 31 g ai/ha)	Plant response rating: Pigweed ([4]; 125 g ai/ha)	Plant response rating: Bluegrass ([5]; 31 g ai/ha)	Plant response rating: Bluegrass ([5]; 125 g ai/ha)	Plant response rating: Buckwheat, Wild ([6]; 31 g ai/ha)	Plant response rating: Buckwheat, Wild ([6]; 125 g ai/ha)	Plant response rating: Wheat, Winter ([7]; 31 g ai/ha)	Plant response rating: Wheat, Winter ([7]; 125 g ai/ha)	Plant response rating: Field Violet ([8]; 31 g ai/ha)	Plant response rating: Field Violet ([8]; 125 g ai/ha)	Plant response rating, Goosegrass [9]	also measured
COc1ccc(-n2c(-c3ccccc3)ncc(C(=O)C3=C(O)CCCC3=O)c2=O)cc1 [Compound 4, 5-[(2-hydroxy-6-oxo-cyclohexen-1-yl)carbonyl]-3-(4-methoxyphenyl)-2-phenyl-4(3H)-pyrimidinone]	10	15	70	95	20	50	90	100	95	100	35	50	95	100	0	20	40	60	–	–
Cc1ccc(-n2c(-c3ccccc3)ncc(C(=O)C3=C(O)CCCC3=O)c2=O)cc1 [Compound 8]	10	30	95	98	20	30	90	100	95	98	25	75	65	65	10	30	65	65	–	Plant response rating: Barley, Spring ([1]; 16 g ai/ha): 0; Plant response rating: Barley, Spring ([1]; 62 g ai/ha): 20; Plant response rating: Foxtail, Green ([2]; 16 g ai/ha): 95; Plant response rating: Foxtail, Green ([2]; 62 g ai/ha): 95; Plant response rating: Oat, Wild (wild oat (Avena fatua); 16 g ai/ha): 20; Plant response rating: Oat, Wild (wild oat (Avena fatua); 62 g ai/ha): 30; Plant response rating: Oilseed Rape ([3]; 16 g ai/ha): 80; Plant response rating: Oilseed Rape ([3]; 62 g ai/ha): 98; Plant response rating: Pigweed ([4]; 16 g ai/ha): 95; Plant response rating: Pigweed ([4]; 62 g ai/ha): 98; Plant response rating: Bluegrass ([5]; 16 g ai/ha): 5; Plant response rating: Bluegrass ([5]; 62 g ai/ha): 50; Plant response rating: Buckwheat, Wild ([6]; 16 g ai/ha): 65; Plant response rating: Buckwheat, Wild ([6]; 62 g ai/ha): 65; Plant response rating: Wheat, Winter ([7]; 16 g ai/ha): 10; Plant response rating: Wheat, Winter ([7]; 62 g ai/ha): 25; Plant response rating: Field Violet ([8]; 16 g ai/ha): 10; Plant response rating: Field Violet ([8]; 62 g ai/ha): 65
O=C1CCCC(O)=C1C(=O)c1cnc(-c2ccccc2)n(-c2ccccc2F)c1=O [Compound 26]	–	–	–	–	–	–	–	–	–	–	–	–	–	–	–	–	–	–	80	–
Cc1ccccc1-n1c(-c2cccc(Cl)c2)ncc(C(=O)C2=C(O)CCCC2=O)c1=O [Compound 36]	–	–	–	–	–	–	–	–	–	–	–	–	–	–	–	–	–	–	90	–
O=C1CCCC(O)=C1C(=O)c1cnc(-c2ccccc2)n(-c2cccc(Br)c2)c1=O [Compound 38]	–	–	–	–	–	–	–	–	–	–	–	–	–	–	–	–	–	–	100	–
